Laboratory results taken from patent US20100267561A1, “HERBICIDAL PYRIDAZINONE DERIVATIVES” (priority 2007, published 2010).

How the values were obtained:
Experiment in all cases: Test B pre-/postemergence plant response
Assay type in all cases: in vivo
[1] = tested on: Russian thistle (Salsola iberica); conditions: Preemergence
Procedure, shortened: (§1)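 Preemergence and postemergence (plants 2-18 cm, 1- to 4-leaf stage) applications used test chemicals in a non-phytotoxic solvent with surfactant. Plants were held in a greenhouse 13 to 15 days, then rated visually against controls on a 0-100 scale (0 no effect, 100 complete control).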

[2] = tested on: bermudagrass (Cynodon dactylon); conditions: for Bermudagrass plant response rating: 8 g ai/ha
Procedure, shortened: as §1

[3] = tested on: cocklebur (Xanthium strumarium); conditions: for Cocklebur plant response rating: 8 g ai/ha
Procedure, shortened: as §1

corn (Zea mays) = conditions: for Corn plant response rating: 8 g ai/ha
Procedure, shortened: as §1

[4] = tested on: giant foxtail (Setaria faberii); conditions: for Foxtail, Giant plant response rating: 8 g ai/ha
Procedure, shortened: as §1

[5] = tested on: goosegrass (Eleusine indica); conditions: for Goosegrass plant response rating: 8 g ai/ha
Procedure, shortened: as §1

[6] = tested on: green foxtail (Setaria viridis); conditions: for Foxtail, Green plant response rating: 8 g ai/ha
Procedure, shortened: as §1

kochia (Kochia scoparia) = conditions: for Kochia plant response rating: 8 g ai/ha
Procedure, shortened: as §1

[7] = tested on: lambsquarters (Chenopodium album); conditions: for Lambsquarters plant response rating: 8 g ai/ha
Procedure, shortened: as §1

soybean (Glycine max) = conditions: for Soybean plant response rating: 8 g ai/ha
Procedure, shortened: as §1

[8] = tested on: velvetleaf (Abutilon theophrasti); conditions: for Velvetleaf plant response rating: 8 g ai/ha
Procedure, shortened: as §1

[9] = tested on: wheat (Triticum aestivum); conditions: for Wheat plant response rating: 8 g ai/ha
Procedure, shortened: as §1

[10] = tested on: woolly cupgrass (Eriochloa villosa); conditions: for Cupgrass, Woolly plant response rating: 8 g ai/ha
Procedure, shortened: as §1

[11] = tested on: yellow nutsedge (Cyperus esculentus); conditions: for Nutsedge, Yellow plant response rating: 8 g ai/ha
Procedure, shortened: as §1

[12] = Postemergence, 16 g ai/ha, scale 0 to 100
[13] = Postemergence, 31 g ai/ha, scale 0 to 100
[14] = Postemergence, 62 g ai/ha, scale 0 to 100, 0 no effect, 100 complete control
[15] = Preemergence, 16 g ai/ha, scale 0 to 100 (0 no effect, 100 complete control)
[16] = Preemergence, 31 g ai/ha, 0 to 100 scale, 0 no effect, 100 complete control
[17] = Preemergence, 62 g ai/ha, scale 0 to 100
[18] = Preemergence, 31 g ai/ha, scale 0 to 100 (0 no effect, 100 complete control)
[19] = Preemergence, 62 g ai/ha, 0 to 100 scale, 0 no effect, 100 complete control

`Cc1cc(-c2ccc(Cl)cc2)nn1-c1c(OC(=O)c2ccccc2)cnn(C)c1=O` [Compound 48] was tested, and the “Plant response rating, Russian Thistle” value ([1]; 16 g ai/ha, scale 0 to 100 (0 no effect, 100 complete control)) was 0, the “Plant response rating, Russian Thistle” value ([1]; 31 g ai/ha, scale 0 to 100 (0 no effect, 100 complete control)) was 0 and the “Plant response rating, Russian Thistle” value ([1]; 62 g ai/ha, scale 0 to 100) was 0. The “Russian Thistle plant response rating” value ([1]; 8 g ai/ha, scale 0 to 100) was 0, the “Bermudagrass plant response rating” value ([2]; postemergence, 0-100 scale) was 65 and the “Plant response rating, Bermudagrass” value [2, 12] was 98. For the same compound, the “Plant response rating, Bermudagrass” value [2, 13] was 100, the “Plant response rating, Bermudagrass” value [2, 14] was 100 and the “Bermudagrass plant response rating” value ([2]; Preemergence, scale 0 to 100 (0 no effect, 100 complete control)) was 0. For the same compound, the “Plant response rating, Bermudagrass” value [2, 15] was 0, the “Plant response rating, Bermudagrass” value [2, 16] was 0 and the “Plant response rating, Bermudagrass” value [2, 17] was 0. The “Cocklebur plant response rating” value ([3]; postemergence, 0-100 scale) was 0, the “Plant response rating, Cocklebur” value [3, 12] was 0 and the “Plant response rating, Cocklebur” value [3, 13] was 0. For the same compound, the “Plant response rating, Cocklebur” value [3, 14] was 0, the “Plant response rating, Cocklebur” value [3, 15] was 0 and the “Plant response rating, Cocklebur” value [3, 16] was 0. For the same compound, the “Plant response rating, Cocklebur” value [3, 17] was 0, the “Cocklebur plant response rating” value ([3]; Preemergence, scale 0 to 100) was 0 and the “Corn plant response rating” value (corn (Zea mays); postemergence, 0-100 scale) was 90. For the same compound, the “Plant response rating, Corn” value (corn (Zea mays); [12]) was 95, the “Plant response rating, Corn” value (corn (Zea mays); [13]) was 100 and the “Plant response rating, Corn” value (corn (Zea mays); [14]) was 100. For the same compound, the “Plant response rating, Corn” value (corn (Zea mays); [15]) was 55, the “Plant response rating, Corn” value (corn (Zea mays); [16]) was 70 and the “Plant response rating, Corn” value (corn (Zea mays); [17]) was 75. The “Corn plant response rating” value (corn (Zea mays); Preemergence, scale 0 to 100) was 15, the “Foxtail, Giant plant response rating” value ([4]; postemergence, 0-100 scale) was 85 and the “Plant response rating, Foxtail, Giant” value [4, 12] was 95. The “Plant response rating, Foxtail, Giant” value [4, 13] was 100, the “Plant response rating, Foxtail, Giant” value [4, 14] was 100 and the “Plant response rating, Foxtail, Giant” value [4, 15] was 0. The “Plant response rating, Foxtail, Giant” value [4, 16] was 0, the “Plant response rating, Foxtail, Giant” value [4, 17] was 0 and the “Foxtail, Giant plant response rating” value ([4]; Preemergence, scale 0 to 100) was 0. The “Goosegrass plant response rating” value ([5]; postemergence, 0-100 scale) was 15, the “Plant response rating, Goosegrass” value [5, 12] was 65 and the “Plant response rating, Goosegrass” value [5, 13] was 75. For the same compound, the “Plant response rating, Goosegrass” value [5, 14] was 95, the “Plant response rating, Goosegrass” value [5, 15] was 0 and the “Plant response rating, Goosegrass” value [5, 16] was 0. The “Plant response rating, Goosegrass” value [5, 17] was 20, the “Goosegrass plant response rating” value ([5]; Preemergence, scale 0 to 100) was 0 and the “Foxtail, Green plant response rating” value ([6]; postemergence, 0-100 scale) was 70. The “Plant response rating, Foxtail, Green” value [6, 12] was 98, the “Plant response rating, Foxtail, Green” value [6, 13] was 100 and the “Plant response rating, Foxtail, Green” value [6, 14] was 100. For the same compound, the “Plant response rating, Foxtail, Green” value [6, 15] was 80, the “Plant response rating, Foxtail, Green” value [6, 16] was 100 and the “Plant response rating, Foxtail, Green” value [6, 17] was 100. For the same compound, the “Foxtail, Green plant response rating” value ([6]; Preemergence, scale 0 to 100) was 30, the “Kochia plant response rating” value (kochia (Kochia scoparia); postemergence, 0-100 scale) was 0 and the “Plant response rating, Kochia” value (kochia (Kochia scoparia); [12]) was 0. The “Plant response rating, Kochia” value (kochia (Kochia scoparia); [13]) was 0, the “Plant response rating, Kochia” value (kochia (Kochia scoparia); [14]) was 0 and the “Plant response rating, Kochia” value (kochia (Kochia scoparia); [15]) was 0. For the same compound, the “Plant response rating, Kochia” value (kochia (Kochia scoparia); [16]) was 0, the “Plant response rating, Kochia” value (kochia (Kochia scoparia); [17]) was 0 and the “Kochia plant response rating” value (kochia (Kochia scoparia); Preemergence, scale 0 to 100) was 0. The “Lambsquarters plant response rating” value ([7]; postemergence, 0-100 scale) was 0, the “Plant response rating, Lambsquarters” value [7, 12] was 0 and the “Plant response rating, Lambsquarters” value [7, 13] was 0. For the same compound, the “Plant response rating, Lambsquarters” value [7, 14] was 0, the “Plant response rating, Lambsquarters” value [7, 15] was 0 and the “Plant response rating, Lambsquarters” value [7, 16] was 0. The “Plant response rating, Lambsquarters” value [7, 17] was 0, the “Lambsquarters plant response rating” value ([7]; Preemergence, scale 0 to 100) was 0 and the “Soybean plant response rating” value (soybean (Glycine max); postemergence, 0-100 scale) was 0. For the same compound, the “Plant response rating, Soybean” value (soybean (Glycine max); [12]) was 0, the “Plant response rating, Soybean” value (soybean (Glycine max); [13]) was 0 and the “Plant response rating, Soybean” value (soybean (Glycine max); [14]) was 0. The “Plant response rating, Soybean” value (soybean (Glycine max); [15]) was 0, the “Plant response rating, Soybean” value (soybean (Glycine max); [18]) was 0 and the “Plant response rating, Soybean” value (soybean (Glycine max); [17]) was 0. For the same compound, the “Soybean plant response rating” value (soybean (Glycine max); Preemergence, scale 0 to 100) was 0, the “Velvetleaf plant response rating” value ([8]; postemergence, 0-100 scale) was 0 and the “Plant response rating, Velvetleaf” value [8, 12] was 0. The “Plant response rating, Velvetleaf” value [8, 13] was 0, the “Plant response rating, Velvetleaf” value [8, 14] was 0 and the “Plant response rating, Velvetleaf” value [8, 15] was 0. The “Plant response rating, Velvetleaf” value [8, 18] was 0, the “Plant response rating, Velvetleaf” value [8, 19] was 0 and the “Velvetleaf plant response rating” value ([8]; Preemergence, scale 0 to 100) was 0. The “Wheat plant response rating” value ([9]; postemergence, 0-100 scale) was 0, the “Plant response rating, Wheat” value [9, 12] was 50 and the “Plant response rating, Wheat” value [9, 13] was 95. The “Plant response rating, Wheat” value [9, 14] was 98, the “Plant response rating, Wheat” value [9, 15] was 0 and the “Plant response rating, Wheat” value [9, 18] was 5. For the same compound, the “Plant response rating, Wheat” value [9, 19] was 60, the “Wheat plant response rating” value ([9]; Preemergence, scale 0 to 100) was 0 and the “Cupgrass, Woolly plant response rating” value ([10]; postemergence, 0-100 scale) was 75. For the same compound, the “Plant response rating, Cupgrass, Woolly” value [10, 12] was 85, the “Plant response rating, Cupgrass, Woolly” value [10, 13] was 100 and the “Plant response rating, Cupgrass, Woolly” value [10, 14] was 100. For the same compound, the “Plant response rating, Cupgrass, Woolly” value [10, 15] was 0, the “Plant response rating, Cupgrass, Woolly” value [10, 16] was 0 and the “Plant response rating, Cupgrass, Woolly” value [10, 17] was 0. The “Cupgrass, Woolly plant response rating” value ([10]; Preemergence, scale 0 to 100) was 0, the “Nutsedge, Yellow plant response rating” value ([11]; postemergence, 0-100 scale) was 0 and the “Plant response rating, Nutsedge, Yellow” value [11, 12] was 0. For the same compound, the “Plant response rating, Nutsedge, Yellow” value [11, 13] was 0, the “Plant response rating, Nutsedge, Yellow” value [11, 14] was 0 and the “Plant response rating, Nutsedge, Yellow” value [11, 15] was 0. The “Plant response rating, Nutsedge, Yellow” value [11, 18] was 0, the “Plant response rating, Nutsedge, Yellow” value [11, 17] was 0 and the “Nutsedge, Yellow plant response rating” value ([11]; Preemergence, scale 0 to 100) was 0.
